US20240208904A1, “CRYSTALLINE POTASSIUM SALT OF 1-ETHYL- N -((1,2,3,5,6,7-HEXAHYDRO- S -INDACEN-4-YL)CARBAMOYL)PIPERIDINE-4 -SULFONAMIDE” (Hoffmann-La Roche Inc., priority 2021, published 2024)
“Also recorded” adds a separate entry of the source.

Tests used:
[1] = for Limit solubilities after 48 h at 20° C.; measured by Q 1H NMR: 4-aminoindacene (level of hydrolytic precursor measured in solution): 50 mg/ml
Procedure: (§1) Crystalline 1-ethyl-N-((1,2,3,5,6,7-hexahydro-s-indacen-4-yl)carbamoyl)piperidine-4-sulfonamide salts (50 mg, 1 wt.) or crystalline 1-ethyl-N-((1,2,3,5,6,7-hexahydro-s-indacen-4-yl)carbamoyl)piperidine-4-sulfonamide free acid (as a control) (50 mg, 1 wt.) were stirred in purified water (1000 μl, 20 vol.) at 20° C. Limit solubilities (mg/ml) were determined after 48 hours at 20° C. measured by Q ^1H NMR (measured against an internal standard, 2,3,5,6-tetrachloronitrobenzene).

[2] = Solubility determinations: limit solubility in purified water by Q 1H NMR
Procedure: as §1

[3] = Competitive suspension equilibration of Form A and Form D in anhydrous acetonitrile; type: physicochemical; conditions: versus Form D, 20° C. or 40° C., 96 hours
Procedure: Form A (50 mg, 1 wt.) and Form D (amounts see Table 16) were charged to a vial and anhydrous acetonitrile (1000 μl, 20 vol.) was added. The vials were stirred at 20° C. or 40° C.for 96 hours.

[4] = Mechanical grinding of Form A, XRPD analysis; type: physicochemical; conditions: ground for 24 hours
Procedure: Form A (50.4 mg) was ground for 24 hours. The product was recovered and analysed by XRPD to determine if any phase changes had occurred.

[5] = Water content / hygroscopicity of polymorphs; type: physicochemical
[6] = General assessment of polymorph solubility and stability to water/humidity; type: physicochemical

**Q.** What does the source list for `CCN1CCC(S(=O)(=O)NC(=O)Nc2c3c(cc4c2CCC4)CCC3)CC1` [Form 3A, 1-ethyl-N-((1,2,3,5,6,7-hexahydro-s-indacen-4-yl)carbamoyl)piperidine-4-sulfonamide]?
**A.** Limit solubilities after 48 h at 20° C.; measured by Q 1H NMR: Free acid form equivalent [1]: 38.0 mg/mL; Limit solubilities after 48 h at 20° C.; measured by Q 1H NMR: 4-aminoindacene (level of hydrolytic precursor measured in solution) [1]: 0.0 mg/mL

**Q.** With `CCN1CCC(S(=O)(=O)NC(=O)Nc2c3c(cc4c2CCC4)CCC3)CC1` [Form 3B, 1-ethyl-N-((1,2,3,5,6,7-hexahydro-s-indacen-4-yl)carbamoyl)piperidine-4-sulfonamide] as the compound, how does the “Limit solubilities after 48 h at 20° C.; measured by Q 1H NMR: Free acid form equivalent” value (“Limit solubilities … Free acid form equivalent” for short) [1] read?
**A.** 6.3 mg/mL

**Q.** And the “Limit solubilities after 48 h at 20° C.; measured by Q 1H NMR: 4-aminoindacene (level of hydrolytic precursor measured in solution)” value [1]?
**A.** 0.0 mg/mL

**Q.** With `CCN1CCC(S(=O)(=O)NC(=O)Nc2c3c(cc4c2CCC4)CCC3)CC1` [Form 3C, 1-ethyl-N-((1,2,3,5,6,7-hexahydro-s-indacen-4-yl)carbamoyl)piperidine-4-sulfonamide] as the compound, how does the “Limit solubilities … Free acid form equivalent” value [1] read?
**A.** 4.5 mg/mL

**Q.** And the “Limit solubilities after 48 h at 20° C.; measured by Q 1H NMR: 4-aminoindacene (level of hydrolytic precursor measured in solution)” value [1]?
**A.** 2.6 mg/mL

**Q.** With `CCN1CCC(S(=O)(=O)NC(=O)Nc2c3c(cc4c2CCC4)CCC3)CC1` [Form 3D, 1-ethyl-N-((1,2,3,5,6,7-hexahydro-s-indacen-4-yl)carbamoyl)piperidine-4-sulfonamide] as the compound, how does the solubility at 48 h ([2]; purified water, 20 °C, water, thermodynamic from solid, Limit solubilities after 48 h at 20° C., measured by Q 1H NMR: Free acid form equivalent, 50 mg in purified water 1000 μl (20 vol.), 20° C., 48 h) read?
**A.** 3900 µg/mL

**Q.** And the “Observation at 18 hours” value ([2]; stirred in purified water (20 vol.) at 20° C., 18 hours)?
**A.** suspension

**Q.** For `CCN1CCC(S(=O)(=O)NC(=O)Nc2c3c(cc4c2CCC4)CCC3)CC1` [Form 3E, 1-ethyl-N-((1,2,3,5,6,7-hexahydro-s-indacen-4-yl)carbamoyl)piperidine-4-sulfonamide], which “Limit solubilities … Free acid form equivalent” value [1] is on record?
**A.** 3.3 mg/mL

**Q.** What about the “Limit solubilities after 48 h at 20° C.; measured by Q 1H NMR: 4-aminoindacene (level of hydrolytic precursor measured in solution)” value [1] of the same compound?
**A.** 0.8 mg/mL

**Q.** Which results are given for `CCN1CCC(S(=O)(=O)NC(=O)Nc2c3c(cc4c2CCC4)CCC3)CC1` [Form 3F, 1-ethyl-N-((1,2,3,5,6,7-hexahydro-s-indacen-4-yl)carbamoyl)piperidine-4-sulfonamide]?
**A.** Limit solubilities after 48 h at 20° C.; measured by Q 1H NMR: Free acid form equivalent [1]: 2.1 mg/mL; Limit solubilities after 48 h at 20° C.; measured by Q 1H NMR: 4-aminoindacene (level of hydrolytic precursor measured in solution) [1]: 0.8 mg/mL

**Q.** For `CCN1CCC(S(=O)(=O)NC(=O)Nc2c3c(cc4c2CCC4)CCC3)CC1` [Form 3G, 1-ethyl-N-((1,2,3,5,6,7-hexahydro-s-indacen-4-yl)carbamoyl)piperidine-4-sulfonamide], which “Limit solubilities … Free acid form equivalent” value [1] is on record?
**A.** 1.5 mg/mL

**Q.** And the “Limit solubilities after 48 h at 20° C.; measured by Q 1H NMR: 4-aminoindacene (level of hydrolytic precursor measured in solution)” value [1]?
**A.** 0.5 mg/mL

**Q.** Which “Limit solubilities … Free acid form equivalent” value [1] does the source give for `CCN1CCC(S(=O)(=O)NC(=O)Nc2c3c(cc4c2CCC4)CCC3)CC1` [Form 3H, 1-ethyl-N-((1,2,3,5,6,7-hexahydro-s-indacen-4-yl)carbamoyl)piperidine-4-sulfonamide] here?
**A.** 0.6 mg/mL

**Q.** And the “Limit solubilities after 48 h at 20° C.; measured by Q 1H NMR: 4-aminoindacene (level of hydrolytic precursor measured in solution)” value [1]?
**A.** 0.0 mg/mL

**Q.** For `CCN1CCC(S(=O)(=O)NC(=O)Nc2c3c(cc4c2CCC4)CCC3)CC1` [Form 3I, 1-ethyl-N-((1,2,3,5,6,7-hexahydro-s-indacen-4-yl)carbamoyl)piperidine-4-sulfonamide], which “Limit solubilities … Free acid form equivalent” value [1] is on record?
**A.** 0.3 mg/mL

**Q.** And the “Limit solubilities after 48 h at 20° C.; measured by Q 1H NMR: 4-aminoindacene (level of hydrolytic precursor measured in solution)” value [1]?
**A.** 0.0 mg/mL

**Q.** With `CCN1CCC(S(=O)(=O)NC(=O)Nc2c3c(cc4c2CCC4)CCC3)CC1` [Form 3J, 1-ethyl-N-((1,2,3,5,6,7-hexahydro-s-indacen-4-yl)carbamoyl)piperidine-4-sulfonamide] as the compound, how does the “Limit solubilities … Free acid form equivalent” value [1] read?
**A.** 0.0 mg/mL

**Q.** What about the “Limit solubilities after 48 h at 20° C.; measured by Q 1H NMR: 4-aminoindacene (level of hydrolytic precursor measured in solution)” value [1] of the same compound?
**A.** 0.1 mg/mL

**Q.** Which “Thermodynamic stability of polymorphic form” value [3] does the source give for `CCN1CCC(S(=O)(=O)NC(=O)Nc2c3c(cc4c2CCC4)CCC3)CC1.[K]` [Form A, 1-Ethyl-N-((1,2,3,5,6,7-hexahydro-s-indacen-4-yl)carbamoyl)piperidine-4-sulfonamide Monopotassium Form A] here?
**A.** more thermodynamically stable polymorphic form; also recorded: thermodynamically stable

**Q.** What about the “Phase change after grinding (XRPD)” value [4] of the same compound?
**A.** no significant change of polymorphic form; also recorded: stable to prolonged grinding conditions

**Q.** What about the Hygroscopicity [5] of the same compound?
**A.** hygroscopic

**Q.** And the Non-assimilated water observed ([5]; depends on preparation and storage conditions)?
**A.** up to 3%

**Q.** And the “Solubility (qualitative)” value [6]?
**A.** good solubility

**Q.** For `CCN1CCC(S(=O)(=O)NC(=O)Nc2c3c(cc4c2CCC4)CCC3)CC1.[K]` [Form D, 1-Ethyl-N-((1,2,3,5,6,7-hexahydro-s-indacen-4-yl)carbamoyl)piperidine-4-sulfonamide Monopotassium Form D], which “Stability in the presence of water” value ([6]; water as solvent or co-solvent or humidity (such as >30% RH at 25° C.)) is on record?
**A.** stable in the presence of water
